Assay results as given in paper PMC6025150, “Synthesis, enzyme inhibitory kinetics mechanism and computational study of N-(4-methoxyphenethyl)-N-(substituted)-4-methylbenzenesulfonamides as novel therapeutic agents for Alzheimer’s disease” (PeerJ, 2018).
In brackets after ≈: the same amount, converted by molar mass. Several values for one entry are separate records, joined by “and”; a condition that tells them apart may be missing. Equal values may be shown once. Read-outs that look alike come from different tables or passages of the source.

Target: T1, acetylcholinesterase (from human erythrocytes) (Homo sapiens, UniProt P22303)
T1 construct: acetylcholinesterase (from human erythrocytes, purchased from Sigma-Aldrich, Seoul, Korea); purchased Sigma-Aldrich, Seoul, Korea; host or cells: human erythrocytes (natural source)
T1 sequence (P22303 32-617 isoform P22303-2 limits assumed): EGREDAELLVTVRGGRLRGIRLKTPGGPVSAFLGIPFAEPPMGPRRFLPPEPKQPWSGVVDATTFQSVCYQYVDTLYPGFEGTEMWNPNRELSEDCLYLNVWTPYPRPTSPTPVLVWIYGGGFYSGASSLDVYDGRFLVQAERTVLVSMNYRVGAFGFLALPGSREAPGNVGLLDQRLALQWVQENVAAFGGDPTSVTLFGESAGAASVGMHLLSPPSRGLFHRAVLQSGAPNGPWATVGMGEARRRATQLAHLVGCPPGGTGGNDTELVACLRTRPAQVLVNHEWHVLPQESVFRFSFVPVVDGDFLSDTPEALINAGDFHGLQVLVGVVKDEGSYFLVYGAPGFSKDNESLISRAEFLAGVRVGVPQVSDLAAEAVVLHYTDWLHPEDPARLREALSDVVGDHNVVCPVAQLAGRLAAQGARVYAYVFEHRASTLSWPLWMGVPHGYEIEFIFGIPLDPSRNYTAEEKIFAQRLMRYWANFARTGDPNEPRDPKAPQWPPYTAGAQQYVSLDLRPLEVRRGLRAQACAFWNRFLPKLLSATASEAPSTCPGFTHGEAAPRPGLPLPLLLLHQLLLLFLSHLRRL
Test: biochemical
Set-up: LogIC50 (best-fit value): unit not given here
Settings: for inhibition (Mean): mean of three; for IC50 (best-fit value): unit not given
Procedure: The inhibitory activities of synthesized compounds were determined spectrophotometrically using acetylthiocholine iodide as substrate by following the method of ([Ellman et al., 1961]). Briefly, The assay solution consisted of 180 µL of 50 mM Tris-HCl buffer, pH 7.7, containing (0.1 M sodium chloride and 0.02 M magnesium chloride) and 20 µL of enzyme (AChE, EC 3.1.1.7), acetylcholinesterase (from human erythrocytes, purchased from Sigma-Aldrich, Seoul, Korea) solution (50 U per well); increasing concentrations of test compounds (10 µL) were added to the assay solution and pre incubated for 30 min at 4 °C. After that 5,5′ Dithiobis (2 nitrobenzoic acid) (0.3 mM, 20 µL) and acetylthiocholine iodide (1.8 mM, 20 µL) were added to the reaction mixture and incubated at 37 °C for 10 min, followed by the measurement of absorbance at 412 nm. For non-enzymatic reaction, the assays were carried out with a blank containing all components except acetylcholinesterase. The assay measurements were measured at 412 nm using a micro plate reader (OPTI Max Tunable; Molecular Devices, Sunnyvale, CA, USA) having a wave-length range from 340–850 nm; for 96 well plates. The reaction rates were compared and percent inhibition was calculated due to the presence of tested inhibitors. […] Each concentration was analyzed in three independent experiments run in triplicate. The IC50 values were calculated by nonlinear regression using GraphPad Prism 5.0.
The % of Inhibition of Acetylcholinesterase was calculated as following: Inhibition%=B−S∕B×100. Here, the B and S are the absorbance’s for the blank and samples.

[1] = each of three independent experiments, Raw Data of IC50 sheet, read-out: IC50, single experiment (converted)
[2] = from human erythrocytes, mean ± SEM, read-out: Acetylcholinesterase IC50 ± SEM
[3] = mean converted to uM, Raw Data of IC50 sheet, read-out: IC50
[4] = mean of three experiments, Raw Data of IC50 sheet, read-out: IC50 (Mean) (converted)
[5] = values as printed in abstract and discussion, read-out: acetylcholinesterase IC50
[6] = log(inhibitor) vs. response fit, single run, IC50 Raw Data sheet
[7] = log(inhibitor) vs. response fit, single run, unit inferred, IC50 Raw Data sheet, read-out: IC50 (best-fit value) (converted)
[8] = Conc: 0.0306373 (unit not given), Raw Data of IC50 sheet
[9] = Conc: 0.0612745 (unit not given), Raw Data of IC50 sheet
[10] = Conc: 0.122549 (unit not given), Raw Data of IC50 sheet
[11] = Conc: 0.245098 (unit not given), Raw Data of IC50 sheet
[12] = Conc: 0.490196 (unit not given), Raw Data of IC50 sheet
[13] = Conc: 0.980392 (unit not given), Raw Data of IC50 sheet
[14] = Conc: 1.96078 (unit not given), Raw Data of IC50 sheet
[15] = Conc: 3.92157 (unit not given), Raw Data of IC50 sheet
[16] = Concentration 0.0306373 (unit not given), IC50 Raw Data sheet
[17] = Concentration 0.0612745 (unit not given), IC50 Raw Data sheet
[18] = Concentration 0.122549 (unit not given), IC50 Raw Data sheet
[19] = Concentration 0.245098 (unit not given), IC50 Raw Data sheet
[20] = Concentration 0.490196 (unit not given), IC50 Raw Data sheet
[21] = Concentration 0.980392 (unit not given), IC50 Raw Data sheet
[22] = Concentration 1.96078 (unit not given), IC50 Raw Data sheet
[23] = Concentration 3.92157 (unit not given), IC50 Raw Data sheet
[24] = each of three independent experiments, Raw Data of IC50 sheet
[25] = mean of three experiments, Raw Data of IC50 sheet

SMILES | IC50 [1] | IC50 [2] [µM] | IC50 [3] [µM] | IC50 [4] [µM] | LogIC50 (best-fit value) [6] | inhibition, single experiment [8] | inhibition (Mean) [8] | inhibition, single experiment [9] | inhibition (Mean) [9] | inhibition, single experiment [10] | inhibition (Mean) [10] | inhibition, single experiment [11] | inhibition (Mean) [11] | inhibition, single experiment [12] | inhibition (Mean) [12] | inhibition, single experiment [13] | inhibition (Mean) [13] | inhibition, single experiment [14] | inhibition (Mean) [14] | inhibition, single experiment [15] | further results
CCN(CCc1ccc(OC)cc1)S(=O)(=O)c1ccc(C)cc1 [Compound 5a, N-Ethyl-N-(4-methoxyphenethyl)-4-methylbenzensulfonamide] | 25 µM and 21 µM and 21.6 µM | 22.5 ± 1.23 | 22.5 | 22.5 |  |  |  |  |  |  |  |  |  |  |  |  |  |  |  |  | 
CCCN(CCc1ccc(OC)cc1)S(=O)(=O)c1ccc(C)cc1 [Compound 5b, N-(4-Methoxyphenethyl)-4-methyl-N-(1-propyl)benzensulfonamide] | 4.77 µM and 3.7 µM and 4.01 µM | 4.16 ± 0.318 | 4.16 | 4.16 |  |  |  |  |  |  |  |  |  |  |  |  |  |  |  |  | IC50 [5]: 0.119 µM
CCCCN(CCc1ccc(OC)cc1)S(=O)(=O)c1ccc(C)cc1 [Compound 5d, N-(1-Butyl)-N-(4-methoxyphenethyl)-4-methylbenzensulfonamide] | 0.0997 µM and 0.134 µM | 0.12 ± 0.0102 | 0.12 | 0.12 | -1.347 |  |  |  |  |  |  |  |  |  |  |  |  |  |  |  | IC50 [7]: 0.125 µM; IC50 [5]: 0.124 ± 0.021 µM
CCCCCN(CCc1ccc(OC)cc1)S(=O)(=O)c1ccc(C)cc1 [Compound 5e, N-(4-Methoxyphenethyl)-4-methyl-N-(1-pentyl)benzensulfonamide] | 0.374 µM and 0.414 µM and 0.406 µM | 0.398 ± 0.0123 | 0.398 | 0.398 | -0.8411 |  |  |  |  |  |  |  |  |  |  |  |  |  |  |  | IC50 [7]: 0.384 µM
CCCCCCCN(CCc1ccc(OC)cc1)S(=O)(=O)c1ccc(C)cc1 [Compound 5f, N-(1-Heptyl)-N-(4-methoxyphenethyl)-4-methylbenzensulfonamide] | 0.474 µM and 0.427 µM | 0.444 ± 0.015 | 0.444 | 0.444 | -0.759 |  |  |  |  |  |  |  |  |  |  |  |  |  |  |  | IC50 [7]: 0.432 µM
COc1ccc(CCN(CCCc2ccccc2)S(=O)(=O)c2ccc(C)cc2)cc1 [Compound 5g, N-(4-Methoxyphenethyl)-4-methyl-N-(3-phenyl-1-propyl) benzensulfonamide] |  | 0.798 ± 0.0138 | 0.798 |  | -0.4313 | 16.111 and 16.8631 | 16.1834 | 30.2326 and 29.5369 | 29.6527 | 32.9175 and 33.3333 | 32.8451 | 43.5555 and 42.1199 | 42.7571 | 49.3413 and 49.9987 | 49.6905 | 59.3325 and 58.7749 | 59.2851 | 66.9964 and 65.1126 | 66.1998 | 74.8965 and 74.0186 | inhibition (Mean) [15]: 74.3992; % inhibition [16]: 15.576%; % inhibition [17]: 32.2845%; % inhibition [18]: 29.1886%; % inhibition [19]: 42.5959%; % inhibition [20]: 49.7315%; % inhibition [21]: 59.7479%; % inhibition [22]: 66.4906%; % inhibition [23]: 74.2824%; IC50, single experiment [24]: 0.3267 µg/mL and 0.3464 µg/mL and 0.341 µg/mL; IC50 (best-fit value) [6]: 0.3704; IC50 (Mean) [25]: 0.338 µg/mL (≈ 0.798 µM)
COc1ccc(CCN(Cc2ccccc2C)S(=O)(=O)c2ccc(C)cc2)cc1 [Compound 5h, N-(4-Methoxyphenethyl)-4-methyl-N-(2-methylbenzyl) benzensulfonamide] |  | 1.011 ± 0.0053 | 1.01 |  | -0.3874 | 41.4444 and 41.0099 | 40.984 | 45.3557 and 45.1011 | 44.9216 | 50.9025 and 51.1299 | 51.0341 | 63.8777 and 63.001 | 63.2456 | 71.1111 and 70.9965 | 70.8325 | 78.3125 and 78.8745 | 78.5659 | 83.9784 and 86.5532 | 85.3051 | 96.8547 and 96.1111 | inhibition (Mean) [15]: 96.3251; % inhibition [16]: 40.4976%; % inhibition [17]: 44.3081%; % inhibition [18]: 51.0699%; % inhibition [19]: 62.858%; % inhibition [20]: 70.3899%; % inhibition [21]: 78.5107%; % inhibition [22]: 85.3837%; % inhibition [23]: 96.0094%; IC50, single experiment [24]: 0.4151 µg/mL and 0.4171 µg/mL; IC50 (best-fit value) [6]: 0.4098; IC50 (Mean) [25]: 0.414 µg/mL (≈ 1.01 µM)
COc1ccc(CCN(Cc2cccc(C)c2)S(=O)(=O)c2ccc(C)cc2)cc1 [Compound 5i, N-(4-Methoxyphenethyl)-4-methyl-N-(3-methylbenzyl) benzensulfonamide] |  | 0.47 ± 0.0109 | 0.47 |  | -0.7362 | 38.1497 and 38.771 | 38.1601 | 45.4473 and 46.02 | 45.6873 | 56.7855 and 56.3378 | 56.078 | 70.5479 and 70.7214 | 71.0257 | 74.2589 and 75.8888 | 75.1591 | 78.1111 and 76.8876 | 77.3479 | 87.2875 and 87.9775 | 87.5273 | 97.778 and 97.9734 | inhibition (Mean) [15]: 97.9676; % inhibition [16]: 37.5596%; % inhibition [17]: 45.5947%; % inhibition [18]: 55.1106%; % inhibition [19]: 71.8079%; % inhibition [20]: 75.3297%; % inhibition [21]: 77.0449%; % inhibition [22]: 87.3169%; % inhibition [23]: 98.1514%; IC50, single experiment [24]: 0.1949 µg/mL and 0.1984 µg/mL; IC50 (best-fit value) [6]: 0.1836; IC50 (Mean) [25]: 0.1923 µg/mL (≈ 0.47 µM)
COc1ccc(CCN(Cc2ccc(C)cc2)S(=O)(=O)c2ccc(C)cc2)cc1 [Compound 5j, N-(4-Methoxyphenethyl)-4-methyl-N-(4-methylbenzyl) benzensulfonamide] |  | 1.11 ± 0.0999 | 1.11 |  | -0.3835 | 17.2222 and 17.1022 | 17.3151 | 31.4199 and 30.0777 | 30.8306 | 36.8749 and 37.0114 | 36.7468 | 48.1258 and 49.804 | 49.2304 | 54.7822 and 55.2287 | 55.0656 | 59.1009 and 58.8888 | 59.2947 | 65.9226 and 65.7652 | 65.7178 | 90.0712 and 89.7746 | inhibition (Mean) [15]: 89.7021; % inhibition [16]: 17.621%; % inhibition [17]: 30.9943%; % inhibition [18]: 36.3541%; % inhibition [19]: 49.7613%; % inhibition [20]: 55.1859%; % inhibition [21]: 59.8945%; % inhibition [22]: 65.4657%; % inhibition [23]: 89.2606%; IC50, single experiment [24]: 0.5355 µg/mL and 0.4119 µg/mL; IC50 (best-fit value) [6]: 0.4136; IC50 (Mean) [25]: 0.4537 µg/mL (≈ 1.11 µM)
